Converted amounts (≈) assume the structure as drawn.
Columns and labels:
HeLa CD4 LTR β-gal cells [1] = experiment: HIV attachment inhibition assay (β-galactosidase chemiluminescence)
gp120/CD4 interaction [2] = molecular target: T1, gp120/CD4 interaction (Human immunodeficiency virus type 1 group M subtype B, UniProt P03375)
gp120/CD4 interaction [3] = molecular target: T1, gp120/CD4 interaction; experiment: cell-based
HeLa CD4 LTR β-gal cells [4] = experiment: Compound toxicity in HeLa CD4 LTR β-gal cells (XTT)

COc1cc(-c2ccc(/N=N/c3ccc4c(S(=O)(=O)O)cc(S(=O)(=O)O)c(N)c4c3O)c(OC)c2)ccc1/N=N/c1ccc2c(S(=O)(=O)O)cc(S(=O)(=O)O)c(N)c2c1O [Chicago Sky Blue]
IC50 (HeLa CD4 LTR β-gal cells [1]; Human immunodeficiency virus 1, HeLa): 0.53 µg/mL (≈ 0.586 µM) | TI (=IC50/TC50) (HeLa CD4 LTR β-gal cells [1]; general virus attachment): >18 | TI (=IC50/TC50) (gp120/CD4 interaction [2]): >5 | IC50 (gp120/CD4 interaction [3]): 2280 nM | TC50 (HeLa CD4 LTR β-gal cells [4]; Table 10, XTT sister plate): >10 µg/mL | TC50 (HeLa CD4 LTR β-gal cells [4]; Table 11): >10 µg/mL

Source: patent publication US6534049B2, “Synthetic soil-extract materials and medicaments for human immunodeficiency viruses based thereon” (priority 1997, dated 2003)
